Results on 8 molecules are retold here after BindingDB's records for patent US11859014 (Emory University, 2024).

Each structure is given as a SMILES string.

Test [1] addresses Genome polyprotein (Hu/NV/NV/1968/US, UniProt Q83883). In words: Fret Assay. The method, then:
(§1) The ability of these compounds to inhibit the NoV, specifically Minerva virus protease catalytic Cys139 covalently (IC50 and Ki) was determined with an enzyme kinetic assay. NoV strains, specifically GII.4 such as the Minerva virus are responsible for causing the majority (80%) of infections in humans. The activity of the inhibitors was evaluated by monitoring the cleavage of a FRET substrate every one minute for 20 minutes (excitation/emission: 488/520 nm) using a SpectraMax M5 microplate reader (Molecular Devices, Sunnyvale CA). Serial dilutions of each inhibitor were incubated with enzyme for 90 minutes at 37° C. before addition of the FRET substrate to ensure complete inactivation. Commercially available protease inhibitors chymostatin and rupintrivir were used as controls.

The target in test [2] is Genome polyprotein (Norovirus Hu/GII.P4_GII.4/Minerva/2006/USA, UniProt A0A0K2E2J2). In words: Fret Assay. As for the experimental part: as §1
Genome polyprotein (Norovirus Hu/GII.P4_GII.4/Minerva/2006/USA, UniProt A0A0K2E2J2), sequence (A0A0K2E2J2 whole entry): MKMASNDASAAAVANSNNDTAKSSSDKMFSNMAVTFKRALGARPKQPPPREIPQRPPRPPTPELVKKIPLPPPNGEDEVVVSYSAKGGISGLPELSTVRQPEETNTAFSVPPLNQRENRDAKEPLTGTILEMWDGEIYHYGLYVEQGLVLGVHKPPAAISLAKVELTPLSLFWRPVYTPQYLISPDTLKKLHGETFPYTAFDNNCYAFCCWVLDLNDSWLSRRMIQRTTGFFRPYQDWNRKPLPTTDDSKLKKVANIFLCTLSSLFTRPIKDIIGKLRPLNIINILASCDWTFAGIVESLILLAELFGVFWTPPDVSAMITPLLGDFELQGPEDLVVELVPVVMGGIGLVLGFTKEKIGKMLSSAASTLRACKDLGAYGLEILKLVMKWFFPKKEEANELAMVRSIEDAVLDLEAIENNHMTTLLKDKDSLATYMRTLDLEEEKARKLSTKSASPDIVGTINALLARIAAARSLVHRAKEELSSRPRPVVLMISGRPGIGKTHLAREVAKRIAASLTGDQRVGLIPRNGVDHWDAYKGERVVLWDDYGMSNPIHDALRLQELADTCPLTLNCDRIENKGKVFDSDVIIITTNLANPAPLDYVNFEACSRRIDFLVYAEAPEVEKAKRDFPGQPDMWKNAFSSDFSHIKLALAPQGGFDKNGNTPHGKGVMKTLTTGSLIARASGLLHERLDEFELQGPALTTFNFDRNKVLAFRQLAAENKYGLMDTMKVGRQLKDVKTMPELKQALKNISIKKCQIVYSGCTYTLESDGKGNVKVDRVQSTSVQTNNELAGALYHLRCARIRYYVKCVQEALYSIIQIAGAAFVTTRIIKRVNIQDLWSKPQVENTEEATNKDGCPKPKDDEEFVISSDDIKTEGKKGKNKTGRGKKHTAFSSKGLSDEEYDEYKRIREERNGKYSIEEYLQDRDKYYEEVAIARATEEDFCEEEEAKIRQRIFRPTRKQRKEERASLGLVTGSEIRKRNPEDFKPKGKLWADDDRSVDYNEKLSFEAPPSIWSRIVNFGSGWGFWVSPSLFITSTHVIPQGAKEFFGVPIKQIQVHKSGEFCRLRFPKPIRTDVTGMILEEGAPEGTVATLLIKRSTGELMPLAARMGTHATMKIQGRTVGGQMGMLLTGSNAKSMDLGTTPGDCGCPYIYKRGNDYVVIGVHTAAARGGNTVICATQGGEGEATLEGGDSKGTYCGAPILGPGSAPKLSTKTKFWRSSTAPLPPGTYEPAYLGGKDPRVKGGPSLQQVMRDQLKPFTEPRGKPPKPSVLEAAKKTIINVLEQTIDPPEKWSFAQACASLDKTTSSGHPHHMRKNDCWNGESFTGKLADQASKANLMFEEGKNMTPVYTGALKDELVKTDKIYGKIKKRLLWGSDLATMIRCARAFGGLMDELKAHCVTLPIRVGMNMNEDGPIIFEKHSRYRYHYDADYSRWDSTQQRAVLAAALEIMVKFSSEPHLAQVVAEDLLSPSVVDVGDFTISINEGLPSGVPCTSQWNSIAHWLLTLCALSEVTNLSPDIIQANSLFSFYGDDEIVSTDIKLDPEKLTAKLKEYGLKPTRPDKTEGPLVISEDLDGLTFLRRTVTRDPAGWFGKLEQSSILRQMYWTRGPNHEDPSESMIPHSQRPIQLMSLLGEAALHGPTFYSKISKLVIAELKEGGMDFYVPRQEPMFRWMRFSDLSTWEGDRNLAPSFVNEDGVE

Genome polyprotein (Hu/NV/NV/1968/US, UniProt Q83883), sequence (Q83883 whole entry): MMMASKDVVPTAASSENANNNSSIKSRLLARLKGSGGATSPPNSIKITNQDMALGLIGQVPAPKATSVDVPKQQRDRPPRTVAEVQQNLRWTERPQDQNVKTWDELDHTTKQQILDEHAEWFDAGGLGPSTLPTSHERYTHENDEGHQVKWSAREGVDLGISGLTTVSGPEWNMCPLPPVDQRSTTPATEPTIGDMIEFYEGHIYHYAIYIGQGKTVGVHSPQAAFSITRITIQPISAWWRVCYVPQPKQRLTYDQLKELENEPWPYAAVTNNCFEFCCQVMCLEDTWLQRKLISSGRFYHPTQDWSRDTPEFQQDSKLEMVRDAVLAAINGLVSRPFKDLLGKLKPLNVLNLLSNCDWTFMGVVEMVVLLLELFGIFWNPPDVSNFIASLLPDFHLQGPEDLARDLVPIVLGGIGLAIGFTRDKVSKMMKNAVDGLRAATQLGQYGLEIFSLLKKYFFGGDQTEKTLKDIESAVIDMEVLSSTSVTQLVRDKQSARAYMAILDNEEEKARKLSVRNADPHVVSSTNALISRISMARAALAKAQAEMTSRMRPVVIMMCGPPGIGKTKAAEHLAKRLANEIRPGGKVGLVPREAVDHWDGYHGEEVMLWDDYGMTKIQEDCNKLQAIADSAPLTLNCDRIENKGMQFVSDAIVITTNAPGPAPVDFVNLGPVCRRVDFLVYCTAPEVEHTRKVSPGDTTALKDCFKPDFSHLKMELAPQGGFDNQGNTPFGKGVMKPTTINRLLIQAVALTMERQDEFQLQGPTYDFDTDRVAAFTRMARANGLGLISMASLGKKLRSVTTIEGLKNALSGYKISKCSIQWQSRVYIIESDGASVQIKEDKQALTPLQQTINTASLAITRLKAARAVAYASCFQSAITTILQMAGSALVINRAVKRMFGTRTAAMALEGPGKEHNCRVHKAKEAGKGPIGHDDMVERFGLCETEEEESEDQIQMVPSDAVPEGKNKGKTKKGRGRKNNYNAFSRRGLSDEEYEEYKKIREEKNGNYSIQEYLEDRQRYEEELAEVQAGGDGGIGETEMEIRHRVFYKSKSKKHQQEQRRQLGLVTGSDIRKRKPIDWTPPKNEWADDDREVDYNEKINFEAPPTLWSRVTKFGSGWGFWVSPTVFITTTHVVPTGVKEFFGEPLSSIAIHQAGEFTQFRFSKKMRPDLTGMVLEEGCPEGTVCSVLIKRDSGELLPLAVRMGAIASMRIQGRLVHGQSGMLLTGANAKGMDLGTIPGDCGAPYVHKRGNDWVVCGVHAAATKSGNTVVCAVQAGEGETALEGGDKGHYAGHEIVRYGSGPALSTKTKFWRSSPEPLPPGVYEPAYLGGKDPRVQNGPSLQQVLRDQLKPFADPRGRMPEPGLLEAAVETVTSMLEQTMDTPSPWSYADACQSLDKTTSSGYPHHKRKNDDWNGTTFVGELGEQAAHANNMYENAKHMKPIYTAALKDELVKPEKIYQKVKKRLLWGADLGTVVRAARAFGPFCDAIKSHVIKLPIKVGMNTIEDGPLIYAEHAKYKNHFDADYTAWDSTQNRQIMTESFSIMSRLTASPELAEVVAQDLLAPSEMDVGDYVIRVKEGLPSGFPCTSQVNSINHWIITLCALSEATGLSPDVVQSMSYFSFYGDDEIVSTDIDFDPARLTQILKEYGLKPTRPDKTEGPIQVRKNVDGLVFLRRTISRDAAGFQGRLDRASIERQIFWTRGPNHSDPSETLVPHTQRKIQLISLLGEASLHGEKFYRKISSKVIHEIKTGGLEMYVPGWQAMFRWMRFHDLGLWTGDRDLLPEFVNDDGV

In the case of `CC(C)C[C@H](NC(=O)[C@H](Cc1ccc(O)cc1)NC(=O)OCc1ccccc1)C(=O)N[C@H](C=O)C[C@@H]1CCCNC1=O` [US11859014, Compound 11], at Genome polyprotein [1], inhibition was half-maximal at 44 nM (IC50) and the inhibition constant (Ki) turned out to be 123 nM. Also, the Ki on Genome polyprotein [2] turned out to be 427 nM.
On Genome polyprotein [1], `CC(C)C[C@H](NC(=O)[C@H](Cc1cccc2ccccc12)NC(=O)OCc1ccccc1)C(=O)N[C@H](C=O)C[C@@H]1CCCNC1=O` [US11859014, Compound 19] gave an IC50 of 80 nM. Further, the Ki amounted to 155 nM at Genome polyprotein [1] and 1190 nM on Genome polyprotein [2].
For `CC(C)C[C@H](NC(=O)[C@H](Cc1cccc2ccccc12)NC(=O)c1cnccn1)C(=O)N[C@H](C=O)C[C@@H]1CCCNC1=O` [US11859014, Compound 23], on Genome polyprotein [1], the IC50 stood at 96 nM and affinity was put at a Ki of 528 nM. This molecule also registered an IC50 on Genome polyprotein [2] of 204 nM.
The molecule `CC(C)C[C@H](NC(=O)[C@H](Cc1cccc2ccccc12)NC(=O)c1cnccn1)C(=O)N[C@H](C=O)C[C@@H]1CCNC1=O` [US11859014, Compound 29] yielded an IC50 at Genome polyprotein [1] of 112 nM. Moreover, the Ki at Genome polyprotein [1] was determined as 350 nM; on Genome polyprotein [2] it was 670 nM.
On Genome polyprotein [2], `CC(C)C[C@H](NC(=O)[C@H](Cc1ccc(F)cc1)NC(=O)OCc1ccccc1)C(=O)N[C@H](C=O)C[C@@H]1CCCNC1=O` [US11859014, Compound 35] came in with an IC50 of 167 nM and a Ki of 858 nM.
In the case of `CC(C)C[C@H](NC(=O)[C@H](Cc1cccc2ccccc12)NC(=O)OCc1ccccc1)C(=O)N[C@H](/C=C(\C#N)C(N)=O)C[C@@H]1CCCNC1=O` [US11859014, Compound 36], the Ki at Genome polyprotein [2] was determined as 3600 nM.
At Genome polyprotein [2], `O=C[C@H](C[C@@H]1CCCNC1=O)NC(=O)[C@H](Cc1ccccc1)NC(=O)[C@H](Cc1cccc2ccccc12)NC(=O)OCc1ccccc1` [US11859014, Compound 83] came in with an IC50 of 482 nM.
At Genome polyprotein [2], `CCOC(=O)/C=C/[C@H](C[C@@H]1CCNC1=O)NC(=O)[C@@H](CC(=O)[C@@H](NC(=O)c1cc(C)on1)C(C)C)Cc1ccc(F)cc1` [US11859014, Compound rupintrivir] yielded an IC50 of 23600 nM and a Ki of 8200 nM.

Broadly, the IC50 is the point on the concentration scale where inhibition reaches its midpoint. A high value points to weaker potency in that assay. A word on the Ki: it is the dissociation constant of the complex between target and ligand, obtained from inhibition or displacement. The low end stands for higher affinity, the high end for lower affinity.
